Experimental data published in US5192758A, “2-biphenyl-carbapenem antibacterial agents” (Merck & Co., Inc., priority 1992, dated 1993).

Each compound was assayed on rat (assay: Intracisternal assay: convulsant response (seizure potential)). Conditions: injection of 20 micro-liters into the intracisternal cavity, amount giving a 50% seizure rate.
Assay type: in vivo
Description: Central to the instant invention was the safety benefit realized by the incorporation of the cyano group to the imidazoliummethylbiphenyl moiety of the carbapenem nucleus, as shown in Table II below. […] This difference in activity was statistically significant and allows one to anticipate a much greater CNS safety profile for the compounds depicted.
The figure reported in Table II was the amount of active compound giving a 50% seizure rate in the rat, serving as a model for humans. For each compound, different concentrations were prepared in water and for each concentration, a group of animals were given an injection of 20 micro-liters into the intracisternal cavity. The seizure response of each member of the group was noted by observation.

SMILES	CONVULSANT RESPONSE MCG/HEAD-ED50 [MCG/HEAD]
CC(O)C1C(=O)N2C(C(=O)[O-])=C(c3cccc(-c4ccc(C[n+]5ccn(CCO)c5)cc4)c3)CC12 (centres unmarked) [R^c = CH2 CH2 OH, R' = H]	35
CC(O)C1C(=O)N2C(C(=O)[O-])=C(c3cccc(-c4ccc(C[n+]5ccn(C)c5)cc4)c3)CC12 (centres unmarked) [R^c = CH3, R' = H]	35
CC(O)C1C(=O)N2C(C(=O)[O-])=C(c3cc(Br)cc(-c4ccc(C[n+]5ccn(C)c5)cc4)c3)CC12 (centres unmarked) [R^c = CH3, R' = Br]	< 12.5
CC(O)C1C(=O)N2C(C(=O)[O-])=C(c3cc(C#N)cc(-c4ccc(C[n+]5ccn(C)c5)cc4)c3)CC12 (centres unmarked) [R^c = CH3, R' = CN]	100
CC(O)C1C(=O)N2C(C(=O)[O-])=C(c3cc(C#N)cc(-c4ccc(C[n+]5ccn(CCO)c5)cc4)c3)CC12 (centres unmarked) [R^c = CH2 CH2 OH, R' = CN]	100
